“And” between values parts separate entries of the source, which are not always exact repeats. Equal entries are not always repeated. Toxic doses and inconclusive results are not listed.
Tested on: BDF1 mice, P388 leukemia ip, median survival T/C
Test: NCI In Vivo Anticancer Drug Screen. Data for tumor model P388 Leukemia (intraperitoneal) in B6D2F1 (BDF1) mice
Conditions: endpoint: median survival time, higher = longer survival
Outline: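 Vehicle-dosed animals serve as the reference; survival of compound-dosed, tumour-implanted mice is divided by it.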

[1] = dose: 50.0 mg/kg/injection, schedule: Q01DX009 (ip), vehicle: saline with Tween-80
[2] = dose: 100.0 mg/kg/injection, schedule: Q01DX009 (ip), vehicle: saline with Tween-80
[3] = dose: 200.0 mg/kg/injection, schedule: Q01DX009 (ip), vehicle: saline with Tween-80
[4] = dose: 6.25 mg/kg/injection, schedule: Q01DX009 (ip), vehicle: water
[5] = dose: 12.5 mg/kg/injection, schedule: Q01DX009 (ip), vehicle: water
[6] = dose: 25.0 mg/kg/injection, schedule: Q01DX009 (ip), vehicle: water
[7] = dose: 100.0 mg/kg/injection, schedule: Q04DX003 (ip), vehicle: other
[8] = dose: 200.0 mg/kg/injection, schedule: Q04DX003 (ip), vehicle: other
[9] = dose: 50.0 mg/kg/injection, schedule: Q04DX003 (ip), vehicle: other
[10] = dose: 50.0 mg/kg/injection, schedule: Q01DX009 (ip), vehicle: saline
[11] = dose: 100.0 mg/kg/injection, schedule: Q01DX009 (ip), vehicle: saline

CCCC(=O)NO
T/C (dose: 100.0 mg/kg/injection, schedule: Q01DX009 (ip), vehicle: saline sonified): 100 % of control | T/C (dose: 200.0 mg/kg/injection, schedule: Q01DX009 (ip), vehicle: saline sonified): 100 % of control | T/C (dose: 400.0 mg/kg/injection, schedule: Q01DX009 (ip), vehicle: saline sonified): 100 % of control

Cc1c2c(cc3c1[nH]c1ccccc13)C=NCC2
T/C [1]: 93 % of control | T/C [2]: 99 % of control | T/C [3]: 101 % of control

Clc1ccc(-c2cc[s+]s2)cc1
T/C (dose: 3.12 mg/kg/injection, schedule: Q01DX009 (ip), vehicle: water): 94 % of control | T/C (dose: 3.12 mg/kg/injection, schedule: Q04DX003 (ip), vehicle: water): 111 % of control | T/C [4]: 110 % of control | T/C (dose: 6.25 mg/kg/injection, schedule: Q04DX003 (ip), vehicle: water): 100 % of control | T/C [5]: 119 % of control | T/C (dose: 12.5 mg/kg/injection, schedule: Q04DX003 (ip), vehicle: water): 97 % of control | T/C [6]: 119 % of control | T/C (dose: 25.0 mg/kg/injection, schedule: Q04DX003 (ip), vehicle: water): 96 % of control and 117 % of control | T/C (dose: 50.0 mg/kg/injection, schedule: Q01DX009 (ip), vehicle: water): 108 % of control | T/C (dose: 50.0 mg/kg/injection, schedule: Q04DX003 (ip), vehicle: water): 90 % of control and 100 % of control | T/C (dose: 100.0 mg/kg/injection, schedule: Q04DX003 (ip), vehicle: water): 98 % of control

CCOP(=O)(N1CC1(C)C)N1CC1(C)C (configuration not stated)
T/C (dose: 50.0 mg/kg/injection, schedule: Q04DX003 (ip), vehicle: alcohol): 110 % of control | T/C (dose: 66.0 mg/kg/injection, schedule: Q04DX003 (ip), vehicle: saline): 280 % of control and 172 % of control | T/C (dose: 100.0 mg/kg/injection, schedule: Q04DX003 (ip), vehicle: saline): 272 % of control and 300 % of control | T/C (dose: 150.0 mg/kg/injection, schedule: Q04DX003 (ip), vehicle: saline): 272 % of control and 95 % of control

c1ccc2c(c1)Cn1c-2nc2ccccc21
T/C [7]: 118 % of control | T/C [8]: 109 % of control | T/C (dose: 400.0 mg/kg/injection, schedule: Q04DX003 (ip), vehicle: other): 113 % of control

CC(C(=O)O)C(=O)O.[NH-]CC[NH-].[Pt+2]
T/C (dose: 3.13 mg/kg/injection, schedule: Q01DX009 (ip), vehicle: water): 167 % of control | T/C [4]: 181 % of control | T/C [5]: 90 % of control | T/C [6]: 214 % of control

COc1ccc(C=C2c3ccccc3-c3ccccc32)cc1
T/C (dose: 100.0 mg/kg/injection, schedule: Q01DX001 (ip), vehicle: saline with Tween-80): 100 % of control | T/C (dose: 200.0 mg/kg/injection, schedule: Q01DX001 (ip), vehicle: saline with Tween-80): 95 % of control | T/C (dose: 400.0 mg/kg/injection, schedule: Q01DX001 (ip), vehicle: saline with Tween-80): 100 % of control

C[C@@H]1C[C@@H]([C@H](O)CC2CC(=O)NC(=O)C2)C(=O)[C@@H](C)C1
T/C (dose: 5.0 mg/kg/injection, schedule: Q01DX010 (ip), vehicle: saline): 100 % of control and 104 % of control | T/C (dose: 10.0 mg/kg/injection, schedule: Q01DX010 (ip), vehicle: saline): 90 % of control and 114 % of control | T/C (dose: 15.0 mg/kg/injection, schedule: Q01DX009 (ip), vehicle: Klucel (hydroxypropylcellulose) (HPC)): 100 % of control | T/C (dose: 20.0 mg/kg/injection, schedule: Q01DX010 (ip), vehicle: saline): 100 % of control (2×) and 119 % of control | T/C (dose: 30.0 mg/kg/injection, schedule: Q01DX009 (ip), vehicle: Klucel (hydroxypropylcellulose) (HPC)): 90 % of control | T/C (dose: 39.9 mg/kg/injection, schedule: Q04DX003 (ip), vehicle: Klucel (hydroxypropylcellulose) (HPC)): 114 % of control | T/C (dose: 39.9 mg/kg/injection, schedule: Q04DX003 (sc), vehicle: Klucel (hydroxypropylcellulose) (HPC)): 110 % of control | T/C (dose: 40.0 mg/kg/injection, schedule: Q01DX010 (ip), vehicle: saline): 115 % of control and 118 % of control | T/C [9]: 121 % of control | T/C (dose: 60.0 mg/kg/injection, schedule: Q01DX009 (ip), vehicle: Klucel (hydroxypropylcellulose) (HPC)): 90 % of control | T/C (dose: 60.0 mg/kg/injection, schedule: Q01DX010 (ip), vehicle: saline): 168 % of control | T/C (dose: 60.0 mg/kg/injection, schedule: Q04DX003 (ip), vehicle: Klucel (hydroxypropylcellulose) (HPC)): 118 % of control | T/C (dose: 64.8 mg/kg/injection, schedule: Q01DX001 (sc), vehicle: Klucel (hydroxypropylcellulose) (HPC)): 108 % of control | T/C (dose: 64.8 mg/kg/injection, schedule: Q04DX003 (ip), vehicle: Klucel (hydroxypropylcellulose) (HPC)): 119 % of control | T/C (dose: 64.8 mg/kg/injection, schedule: Q04DX003 (sc), vehicle: Klucel (hydroxypropylcellulose) (HPC)): 107 % of control | T/C [7]: 178 % of control | T/C (dose: 108.0 mg/kg/injection, schedule: Q01DX001 (ip), vehicle: Klucel (hydroxypropylcellulose) (HPC)): 109 % of control | T/C (dose: 108.0 mg/kg/injection, schedule: Q01DX001 (sc), vehicle: Klucel (hydroxypropylcellulose) (HPC)): 110 % of control | T/C (dose: 108.0 mg/kg/injection, schedule: Q04DX003 (ip), vehicle: Klucel (hydroxypropylcellulose) (HPC)): 118 % of control | T/C (dose: 108.0 mg/kg/injection, schedule: Q04DX003 (sc), vehicle: Klucel (hydroxypropylcellulose) (HPC)): 96 % of control | T/C (dose: 120.0 mg/kg/injection, schedule: Q04DX003 (ip), vehicle: Klucel (hydroxypropylcellulose) (HPC)): 90 % of control | T/C (dose: 180.0 mg/kg/injection, schedule: Q01DX001 (ip), vehicle: Klucel (hydroxypropylcellulose) (HPC)): 108 % of control | T/C (dose: 180.0 mg/kg/injection, schedule: Q01DX001 (sc), vehicle: Klucel (hydroxypropylcellulose) (HPC)): 116 % of control | T/C (dose: 180.0 mg/kg/injection, schedule: Q04DX003 (ip), vehicle: Klucel (hydroxypropylcellulose) (HPC)): 98 % of control | T/C [8]: 97 % of control | T/C (dose: 300.0 mg/kg/injection, schedule: Q01DX001 (ip), vehicle: Klucel (hydroxypropylcellulose) (HPC)): 114 % of control | T/C (dose: 300.0 mg/kg/injection, schedule: Q01DX001 (sc), vehicle: Klucel (hydroxypropylcellulose) (HPC)): 118 % of control

CCOC(=O)c1ccc(NCC#N)cc1
T/C [2]: 90 % of control | T/C [3]: 100 % of control | T/C (dose: 400.0 mg/kg/injection, schedule: Q01DX009 (ip), vehicle: saline with Tween-80): 100 % of control

COc1cc2c3c(c1)-c1nc4ccccc4cc1CN3CCC2
T/C (dose: 12.5 mg/kg/injection, schedule: Q04DX003 (ip), vehicle: other): 100 % of control | T/C (dose: 25.0 mg/kg/injection, schedule: Q04DX003 (ip), vehicle: other): 113 % of control | T/C [9]: 109 % of control

N#Cc1cn[nH]c1N
T/C [10]: 100 % of control | T/C [11]: 109 % of control | T/C (dose: 200.0 mg/kg/injection, schedule: Q01DX009 (ip), vehicle: saline): 98 % of control

CC1(C)N=C(N)N=C(N)N1c1ccc(OCC(=O)Nc2ccc(S(=O)(=O)F)cc2)c(Cl)c1
T/C (dose: 44.0 mg/kg/injection, schedule: Q04DX003 (ip), vehicle: saline): 113 % of control | T/C [10]: 190 % of control | T/C (dose: 100.0 mg/kg/injection, schedule: Q01DX008 (ip), vehicle: saline): 195 % of control | T/C [11]: 205 % of control | T/C (dose: 132.0 mg/kg/injection, schedule: Q04DX003 (ip), vehicle: saline): 166 % of control and 200 % of control | T/C (dose: 200.0 mg/kg/injection, schedule: Q01DX008 (ip), vehicle: saline): 200 % of control | T/C (dose: 200.0 mg/kg/injection, schedule: Q04DX003 (ip), vehicle: saline): 161 % of control and 215 % of control | T/C (dose: 300.0 mg/kg/injection, schedule: Q04DX003 (ip), vehicle: saline): 245 % of control and 152 % of control

CCC(C)C(NS(=O)(=O)c1ccc(C)cc1)C(=O)O (configuration not stated)
T/C (dose: 50.0 mg/kg/injection, schedule: Q01DX005 (ip), vehicle: saline with Tween-80): 96 % of control | T/C (dose: 100.0 mg/kg/injection, schedule: Q01DX005 (ip), vehicle: saline with Tween-80): 102 % of control | T/C (dose: 200.0 mg/kg/injection, schedule: Q01DX005 (ip), vehicle: saline with Tween-80): 112 % of control

COc1cccc(/C=N/NC(=O)C[n+]2ccccc2)c1OC
T/C (dose: 12.5 mg/kg/injection, schedule: Q01DX009 (ip), vehicle: saline with Tween-80): 104 % of control | T/C (dose: 25.0 mg/kg/injection, schedule: Q01DX009 (ip), vehicle: saline with Tween-80): 100 % of control | T/C [1]: 104 % of control | T/C (dose: 50.0 mg/kg/injection, schedule: Q04DX003 (ip), vehicle: saline with Tween-80): 100 % of control

From PubChem BioAssay AID328 (DTP/NCI, 2004)
